3 compounds from ChEMBL document CHEMBL6087458, “The Discovery of a Novel AXL/Triple Angiokinase Inhibitor Based on 6-Chloro-Substituted Indolinone and Side Chain Methyl Substitution Inhibiting Pancreatic Cancer Growth and Metastasis” (J Med Chem, 2025) can be followed below.

In one series the test system is A549. Description: cells. To be noted: Homo sapiens, A549, 72 h.
A short description of series [1]: Volume of distribution at steady state in Sprague-Dawley rat at 5 mg/kg, iv. It is filed as ADME, organism-based. To be noted: in vivo, read-out: Vdss.
For a further series, the system named is SW480. Kind of series: cells. To be noted: Homo sapiens, SW480, 72 h.
Another series concerns A549/TR. Kind of series: cells. To be noted: Homo sapiens, 72 h.
Series [2] in a line: Cytotoxicity against human HEK293 cells assessed as inhibition of cell growth. It is filed as toxicity, cell-based.
For series [3], the system named is Osimertinib-resistant NCI-H1975 cell. Description: cells. To be noted: Homo sapiens, 72 h.
A short description of series [4]: Cmax in Sprague-Dawley rat at 50 mg/kg, po. Type of series: ADME, organism-based. The note with it: in vivo.
Series [5] can be described thus: Cytotoxicity against human HUVEC cells assessed as cell viability incubated for 72 hrs by MTT assay. It is filed as toxicity, cell-based. In general terms: Tetrazolium dyes change colour on reduction, which living cells bring about.
A short description of series [6]: Cytotoxicity against mouse NIH/3T3 cells assessed as cell viability incubated for 72 hrs by MTT assay. It is filed as toxicity, cell-based, NIH3T3.
The test system of series [7] is BXPC-3. Kind of series: Antitumor activity against human BXPC-3 cells xenografted in mouse assessed as reduction in tumor weight at 50 mg/kg, po administered for 14 days. Type of series: functional. The arrangement: scale not given: the % may be the effect or the level left. The note with it: time 14 day. (In xenograft studies the graft and the host belong to different species.)

Series [8] is described as follows: Clearance in Sprague-Dawley rat at 5 mg/kg, iv. It is filed as ADME, organism-based. To be noted: in vivo.
Series [9] is described as follows: Half life in Sprague-Dawley rat at 50 mg/kg, po. It is filed as ADME, organism-based. The note with it: in vivo.
The subject of a further series is PC-9. Description: cells. To be noted: Homo sapiens, PC-9, 72 h.
Series [10] can be described thus: AUC (0 to last) in Sprague-Dawley rat at 50 mg/kg, po. To be noted: in vivo, po, 50 mg/kg. It is filed as ADME, organism-based.
Series [11] is described as follows: AUC (0 to last) in Sprague-Dawley rat at 5 mg/kg, iv. The note with it: in vivo, iv, 5 mg/kg. Type of series: ADME, organism-based.
The nature of series [12]: Cytotoxicity against human MCF-10A cells assessed as inhibition of cell growth. It is filed as toxicity, cell-based.
In the next series the test system is MDA-MB-231. Description: cells. To be noted: Homo sapiens, MDA-MB-231, 72 h.
Series [13] is described as follows: Cytotoxicity against human HaCaT cells assessed as inhibition of cell growth. It is filed as toxicity, cell-based.
A short description of series [14]: Metabolic stability in rat liver microsome assessed as half life measured upto 240 mins by HPLC analysis. It is filed as ADME. The note with it: liver microsomes.
Series [15] deals with BXPC-3. Description: cells. To be noted: Homo sapiens, BXPC-3, 72 h.
Description: Antiproliferative activity against human BXPC-3 cells assessed as cell viability incubated for 72 hrs by MTT assay
Another series in a line: cells. The note with it: Homo sapiens, CDDP-resistant A549 cell, 72 h.
The nature of series [16]: Tmax in Sprague-Dawley rat at 50 mg/kg, po. It is filed as ADME, organism-based. The note with it: in vivo.
Another series deals with MKN-45. Description: cells. The note with it: Homo sapiens, MKN-45, 72 h.
For a further series, the system named is NCI-H1975. Kind of series: cells. To be noted: Homo sapiens, NCI-H1975, 72 h.
Series [17] is described as follows: Cytotoxicity against human HK-2 cells assessed as inhibition of cell growth. It is filed as toxicity, cell-based.
Series [18] can be described thus: Oral bioavailability in Sprague-Dawley rat at 50 mg/kg. Type of series: ADME, organism-based. To be noted: in vivo, po, 50 mg/kg.
Series [19] concerns the target Tyrosine-protein kinase receptor UFO (Homo sapiens) (UniProt P30530). To be noted: dose 100.0 nM.
Description: Inhibition of AXL (unknown origin) at 100 nM by envision reader analysis relative to control
A short description of series [20]: Half life in Sprague-Dawley rat at 5 mg/kg, iv. It is filed as ADME, organism-based. To be noted: in vivo.
Series [21] concerns BXPC-3. Kind of series: Antitumor activity against human BXPC-3 cells xenografted in mouse assessed as tumor growth inhibition at 50 mg/kg, po administered for 14 days. Type of series: functional. To be noted: BXPC-3, 336 h, time 14 day, read-out: TGI.

Chain of Tyrosine-protein kinase receptor UFO (Homo sapiens) (P30530 whole entry): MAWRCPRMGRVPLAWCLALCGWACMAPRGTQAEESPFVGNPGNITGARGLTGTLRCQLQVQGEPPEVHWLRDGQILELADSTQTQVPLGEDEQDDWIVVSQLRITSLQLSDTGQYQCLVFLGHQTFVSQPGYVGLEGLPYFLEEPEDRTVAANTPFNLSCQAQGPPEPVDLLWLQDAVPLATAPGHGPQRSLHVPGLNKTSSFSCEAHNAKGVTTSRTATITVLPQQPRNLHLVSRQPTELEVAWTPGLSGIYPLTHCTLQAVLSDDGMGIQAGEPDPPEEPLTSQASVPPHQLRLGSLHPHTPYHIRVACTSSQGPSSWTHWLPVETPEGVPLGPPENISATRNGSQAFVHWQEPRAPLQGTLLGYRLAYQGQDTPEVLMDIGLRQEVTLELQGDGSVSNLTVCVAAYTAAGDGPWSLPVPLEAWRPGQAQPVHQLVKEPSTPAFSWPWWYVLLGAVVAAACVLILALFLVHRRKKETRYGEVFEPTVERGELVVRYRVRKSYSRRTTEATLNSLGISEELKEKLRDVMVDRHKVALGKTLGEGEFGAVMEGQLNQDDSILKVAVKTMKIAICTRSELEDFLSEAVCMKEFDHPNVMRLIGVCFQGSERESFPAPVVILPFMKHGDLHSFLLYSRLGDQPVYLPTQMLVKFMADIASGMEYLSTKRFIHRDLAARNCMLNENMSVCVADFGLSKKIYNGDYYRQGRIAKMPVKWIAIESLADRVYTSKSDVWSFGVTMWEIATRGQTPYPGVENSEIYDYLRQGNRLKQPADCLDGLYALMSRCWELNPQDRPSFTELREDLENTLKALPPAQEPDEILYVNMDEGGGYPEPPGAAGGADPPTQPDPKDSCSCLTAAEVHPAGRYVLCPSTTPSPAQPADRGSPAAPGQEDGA
Description for A549/TR: Antiproliferative activity against human A549/Taxol cells assessed as cell viability incubated for 72 hrs by MTT assay
Description for MDA-MB-231: Antiproliferative activity against human MDA-MB-231 cells assessed as cell viability incubated for 72 hrs by MTT assay
Description for MKN-45: Antiproliferative activity against human MKN-45 cells assessed as cell viability incubated for 72 hrs by MTT assay
Description for PC-9: Antiproliferative activity against human PC-9 cells assessed as cell viability incubated for 72 hrs by MTT assay
Description for SW480: Antiproliferative activity against human SW480 cells assessed as cell viability incubated for 72 hrs by MTT assay

The compound `CC(=O)O[C@H]1C(=O)[C@@]2(C)[C@H]([C@H](OC(=O)c3ccccc3)[C@]3(O)C[C@H](OC(=O)[C@H](O)[C@@H](NC(=O)c4ccccc4)c4ccccc4)C(C)=C1C3(C)C)[C@]1(OC(C)=O)CO[C@@H]1C[C@@H]2O` [PACLITAXEL] displayed an IC50 in the series on A549 of 1.34 µM.
In the case of `COC(=O)c1ccc2c(c1)NC(=O)/C2=C(\Nc1ccc(N(C)C(=O)CN2CCN(C)CC2)cc1)c1ccccc1` [NINTEDANIB], the Vd in [1] is 7.91 L/kg. Further, the IC50 in the series on SW480 was above 10 µM; in the series on A549/TR, 10 µM; in series [2], 3.46 µM; in series [3], above 10 µM; in the series with A549, above 10 µM; in the series with PC-9, above 10 µM. In addition, the IC50 in [12] is above 10 µM; with MDA-MB-231, above 10 µM; in [13], above 10 µM; in the series on BXPC-3 [15], 5.34 µM; in the series “cells” it was above 10 µM; with MKN-45, above 10 µM. The half-maximal inhibitory concentration (IC50) in the series on NCI-H1975 is above 10 µM; in series [17] it was 2.87 µM. The peak level in series [4] (Cmax) was 64.2 ng/mL. Further, the IC50 at 72 h in series [5] was determined as 3.69 µM; in [6], 4.34 µM. Also, the Activity in the series on BXPC-3 [7] is reported as 55.84%. The compound also gave a clearance in series [8] of 111 mL/min/kg. In addition, the half-life in [9] is 3.99 h; in series [14], 0.194 h; in series [20] it was 1.76 h. Moreover, the AUClast in series [10] was found to be 64.2 ng·h/mL; in series [11], 749 ng·h/mL. Moreover, in [16], the Tmax is 2 h. Also, in [18], the F worked out at 7.91%. This compound gave an inhibition in series [19] of 32.1%. Moreover, the inhibition in vivo at 50 mg/kg with BXPC-3 [21] worked out at 68.1%.
Regarding `CN(C(=O)CN1CCC(N(C)C)CC1)c1ccc(N/C(=C2\C(=O)Nc3cc(Br)ccc32)c2ccccc2)cc1`, the IC50 at 72 h worked out at 1.94 µM in [5] and 2.31 µM in series [6]. For the same compound, the IC50 in the series on MDA-MB-231 worked out at 2.97 µM; in the series with BXPC-3 [15] it was 3.02 µM.

The IC50 is the concentration that inhibits the measured activity by half. By Cmax is commonly meant the highest concentration seen after dosing. As usually defined, the clearance is a measure of how efficiently the substance is removed, as volume per time. By half-life is commonly meant the time in which the quantity being followed falls by half. The term Tmax denotes the time at which the peak concentration occurs. As a reminder, the inhibition is the share of the control response that was lost under treatment.
